The results in this text go back to patent publication US10774051B2, “6-membered heterocyclic derivatives and pharmaceutical composition comprising the same” (Shionogi & Co., Ltd., priority 2015, dated 2020).

As a reminder, the IC50 is the point on the concentration scale where inhibition reaches its midpoint.

The target in the first assay is human P2X7 receptor (Homo sapiens, UniProt Q99572, R270H/Y155H). Kind of assay: Evaluation of human P2X7 receptor inhibitory activity (Yo-Pro uptake, BzATP stimulation, FLIPR TETRA). The settings on record: 1321N1 cells stably expressing human P2X7 receptor; BzATP stimulation, Yo-Pro uptake; read-out: IC50 (antagonistic activity for the human P2X7 receptor). Type of assay: cell-based. In outline: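 Yo-Pro dye uptake triggered by BzATP was monitored by FLIPR in human P2X7-transfected 1321N1 cells (SNP variant) in HEPES-buffered HBSS, pH 7.4-7.5. Compound was dispensed 8 min post-stimulation, then signal read for 20 min; IC50 derived logistically from inhibition of the fluorescence range.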
With `COc1cc(C)c(Nc2cc(=O)n(C)c(=O)n2Cc2cc(F)c(F)c(F)c2)cc1C` [Compound I-0991], the IC50 stood at 29 nM. The same measure, in the same setting: in the case of `COc1cn(Cc2ccccc2)c(Nc2ccc3nc(C)sc3c2C)nc1=O` [Compound I-0858] it was 10 nM; in that of `Cn1ccc2c(Nc3nc(=O)c(F)cn3Cc3ccc(F)c(Cl)c3)cccc21` [Compound I-1019], 4 nM; in that of `Cc1ccc(-c2nnco2)cc1Nc1nc(=O)c(F)cn1Cc1cc(F)c(F)c(F)c1` [Compound I-1216], 6 nM. On the same count and under the same terms, in the case of `COc1ccc(C)c(Nc2nc(=O)c(OC)cn2Cc2ccc(F)c(F)c2)c1` [Compound I-0407] it was 6 nM.

For `COc1cccc(Cn2cc(OC)c(=O)nc2Nc2cccc(Cl)c2C)c1` [Compound I-0052], the IC50 was found to be 130 nM.

As to `COc1cn(Cc2ccc(F)c(Cl)c2)c(Nc2cc3cc[nH]c3cc2C)nc1=O` [Compound I-0941], the IC50 was determined as 12 nM. On the same count and under the same terms, in the case of `COc1cn(Cc2cccc(C(F)(F)F)c2)c(Nc2cccc(Cl)c2C)nc1=O` [Compound I-0295] it was 170 nM.

The same assay, now with this note: 1321N1 cells stably expressing human P2X7 receptor; BzATP stimulation, Yo-Pro uptake; read-out: IC50 (antagonistic activity for the human P2X7 receptor), class symbol.
`COc1cn(Cc2ccc(F)c(Cl)c2)c(Nc2cc(C)c(C)cc2C)nc1=O` [Compound I-0243]: the IC50 is less than 10 nM. On the same count and under the same terms, with `CCc1cc(F)ccc1Nc1nc(=O)c(OC)cn1Cc1ccccc1` [Compound I-0400] the figure was 100 to 500 nM; with `COc1cn(Cc2ccc(F)c(Cl)c2)c(Nc2cc(CO)c(C)cc2C)nc1=O` [Compound I-0247], less than 10 nM. Still for that read-out and setting: with `Cc1cc2c(cc1Nc1nc(=O)c(F)cn1Cc1ccc(F)c(Cl)c1)OCCO2` [Compound I-0369] the figure was less than 10 nM; with `COc1cn(Cc2ccccc2)c(Nc2cc(-n3cccc3)ccc2C)nc1=O` [Compound I-0239], 100 to 500 nM; with `Cc1c(Cl)cccc1Nc1nc(=O)c(C#N)cn1Cc1ccc(F)cc1` [Compound I-0056], 10 to 100 nM. Still for that read-out and setting: in the case of `CCc1c(Nc2nc(=O)c(OC)cn2Cc2cccc(Cl)c2)cc(OC)cc1OC` [Compound I-0362] it was less than 10 nM; in that of `COc1cn(Cc2cccc(C)c2)c(Nc2cccc(Cl)c2C)nc1=O` [Compound I-0044], 10 to 100 nM. On to `COc1cn(Cc2ccc(F)c(Cl)c2)c(Nc2cc(N3CCN(C(=O)OC(C)(C)C)CC3)ccc2C)nc1=O` [Compound I-0412], for which the IC50 fell in the range of 100 to 500 nM. Same read-out and setting: with `COc1cn(Cc2ccc(F)c(F)c2)c(Nc2cccc(C)c2C)nc1=O` [Compound I-0324] the figure was less than 10 nM; with `COc1cn(Cc2ccccc2)c(Nc2cccc(F)c2C)nc1=O` [Compound I-0082], 100 to 500 nM. On the same count and under the same terms, in the case of `COc1cn(Cc2ccccc2)c(NCc2ccccc2C(F)(F)F)nc1=O` [Compound I-0065] it was 500 to 1000 nM. As for `COc1cn(Cc2cc(F)cc(C(F)(F)F)c2)c(Nc2cccc(Cl)c2C)nc1=O` [Compound I-0582], the IC50 lay within 100 to 500 nM.

As for `COc1cn(Cc2cc(F)cc(Cl)c2)c(Nc2cccc(OC(F)F)c2C)nc1=O` [Compound I-0576], the IC50 lay in the range of 10 to 100 nM.

As for `COc1cn(Cc2cccc(Cl)c2)c(Nc2cc(-c3nnco3)ccc2C)nc1=O` [Compound I-0444], the IC50 was in the range of 10 to 100 nM. On the same count and under the same terms, in the case of `CCc1cc(OC)ccc1Nc1nc(=O)c(OC)cn1Cc1ccc(F)cc1` [Compound I-0262] it was less than 10 nM; in that of `CCOc1cc(C)c(Nc2nc(=O)c(OC)cn2Cc2cc(F)cc(F)c2)cc1C` [Compound I-0383], less than 10 nM; in that of `COc1cn(Cc2ccc(F)c(Cl)c2)c(Nc2ccc(OC(C)C)cc2C)nc1=O` [Compound I-0532], 10 to 100 nM. On to `COc1cn(Cc2ccc(F)c(Cl)c2)c(Nc2ccc(N3CCOCC3)cc2C)nc1=O` [Compound I-0548], for which the IC50 lay within 10 to 100 nM. Same read-out and setting: with `COc1cn(Cc2ccccc2)c(Nc2ccc(C)cc2C)nc1=O` [Compound I-0106] the figure was 10 to 100 nM; with `COc1cn(Cc2cc(F)cc(Cl)c2)c(Nc2cc(OC(C)C)ccc2C)nc1=O` [Compound I-0557], 10 to 100 nM. For `COc1cc(C)c(Nc2nc(=O)c(Cl)cn2Cc2ccc(F)c(Cl)c2)cc1OC` [Compound I-0345], the IC50 was less than 10 nM. On to `CCc1c(Nc2nc(=O)c(OC)cn2Cc2ccc(F)cc2)cccc1OC` [Compound I-0213], for which the IC50 was less than 10 nM. Same read-out and setting: in the case of `COc1cn(Cc2ccc(F)c(Cl)c2)c(Nc2cc(OCC(F)(F)F)ccc2C)nc1=O` [Compound I-0497] it was 10 to 100 nM; in that of `COc1cc(C)c(Nc2nc(=O)c(OC)cn2Cc2ccccc2)cc1OC` [Compound I-0182], less than 10 nM; in that of `Cc1c(Cl)cccc1Nc1nc(=O)c(F)cn1Cc1ccccc1` [Compound I-0010], less than 10 nM.

Staying with this assay, now noted: antagonistic activity for the human P2X7 receptor; read-out: IC50.
Take `Cc1ccc(C)c(Nc2nc(=N)c(F)cn2Cc2cc(F)c(F)c(F)c2)c1` [Compound I-1294]: the IC50 fell in the range of 10 to 100 nM. In the case of `COCc1cn(Cc2cc(F)c(F)c(F)c2)c(Nc2cc(CO)ccc2C)nc1=O` [Compound I-1152], the IC50 was less than 10 nM. On to `COc1ccc(Nc2nc(=O)c(F)cn2Cc2ccc(F)c(Cl)c2)c(C)c1` [Compound I-0840], for which the IC50 is less than 10 nM. Still for that read-out and setting: in the case of `COc1cn(Cc2cc(F)cc(Cl)c2)c(Nc2ccc(OC(F)(F)F)cc2C)nc1=O` [Compound I-0609] it was 100 to 500 nM; in that of `COc1cn(Cc2ccc(F)c(Cl)c2)c(Nc2cc(N3CCOCC3)ccc2C)nc1=O` [Compound I-0735], 10 to 100 nM. With `Cc1ccc(-c2nnco2)cc1Nc1nc(=O)c(Cl)cn1Cc1cc(F)c(F)c(F)c1` [Compound I-1157], the IC50 is less than 10 nM.

For the molecule `CCc1cc(F)c(OC)cc1Nc1nc(=O)c(OC)cn1Cc1cc(F)cc(Cl)c1` [Compound I-0816], the IC50 is less than 10 nM.

Regarding `Cc1ccc(S(C)(=O)=O)cc1Nc1nc(=O)ccn1Cc1cc(F)c(F)c(F)c1` [Compound I-1134], the IC50 was 10 to 100 nM.

In the case of `CCc1cc2c(cc1Nc1nc(=O)c(OC)cn1Cc1ccccc1)OCO2` [Compound I-0687], the concentration for half-maximal inhibition (IC50) was in the range of 10 to 100 nM. Same read-out and setting: with `COc1cn(Cc2cc(F)cc(Cl)c2)c(Nc2cc(C)cc3[nH]ccc23)nc1=O` [Compound I-0649] the figure was 10 to 100 nM; with `COc1cn(Cc2ccc(F)c(Cl)c2)c(Nc2cc3[nH]ccc3cc2C)nc1=O` [Compound I-0619], less than 10 nM; with `COc1cn(Cc2ccc(F)c(Cl)c2)c(Nc2cc(-c3ccnn3C)ccc2C)nc1=O` [Compound I-0733], 10 to 100 nM. On to `COc1ccc(C)c(Nc2nc(=O)c(C(=O)O)nn2Cc2cc(F)c(F)c(F)c2)c1` [Compound I-1249], for which the IC50 fell in the range of 10 to 100 nM. The same measure, in the same setting: in the case of `COc1cn(Cc2ccc(F)c(Cl)c2)c(Nc2cc(C)c(OC(F)F)cc2C)cc1=O` [Compound I-0948] it was 10 to 100 nM; in that of `COc1cn(Cc2cc(F)c(F)c(F)c2)c(Nc2cccc3c(=O)[nH]ccc23)nc1=O` [Compound I-0603], 10 to 100 nM; in that of `Cc1nc2cc(C)c(Nc3nc(=O)c(F)cn3Cc3ccc(F)c(Cl)c3)cc2s1` [Compound I-0778], less than 10 nM. The same measure, in the same setting: in the case of `COc1cc(C)c(Nc2nc(=O)c(C)nn2Cc2cc(F)c(F)c(F)c2)cc1OC` [Compound I-1266] it was 10 to 100 nM; in that of `CCc1cc2c(cc1Nc1nc(=O)c(OC)cn1Cc1ccccc1)OC(F)(F)O2` [Compound I-0728], 100 to 500 nM; in that of `COc1cn(Cc2ccccc2)c(Nc2cc(C)c(Cl)cc2F)nc1=O` [Compound I-0801], 100 to 500 nM. Same read-out and setting: with `COc1cn(Cc2ccc(F)c(F)c2)c(Nc2cc(-c3ccc(C)o3)ccc2C)nc1=O` [Compound I-0767] the figure was 10 to 100 nM.

`COc1cc(F)c(Nc2nc(=O)c(C)nn2Cc2cc(F)c(F)c(F)c2)cc1OC` [Compound I-1257]: the IC50 fell in the range of 10 to 100 nM. Regarding `COc1cc(Nc2nc(=O)c(OC)cn2Cc2cc(F)cc(F)c2)c(C)cc1F` [Compound I-0781], the IC50 lay in the range of 10 to 100 nM.

Regarding `Cc1cc(OC(F)F)ccc1Nc1nc(=O)c(F)cn1Cc1cc(F)cc(F)c1` [Compound I-1064], the IC50 fell in the range of 10 to 100 nM. Consider `COc1cn(Cc2cc(F)cc(Cl)c2)c(Nc2cc(N3CCOCC3)ccc2C)nc1=O` [Compound I-0737], for which the IC50 fell in the range of 10 to 100 nM.

In the case of `Cc1nc2cc(C)c(Nc3nc(=O)cnn3Cc3cc(F)c(F)c(F)c3)cc2s1` [Compound I-1284], the IC50 was less than 10 nM. On the same count and under the same terms, with `COc1cn(Cc2cc(F)cc(F)c2)c(Nc2cc(Oc3ccccn3)ccc2C)nc1=O` [Compound I-0897] the figure was less than 10 nM; with `COc1cn(Cc2ccccc2)c(Nc2cc(C(C)(C)O)ccc2C)nc1=O` [Compound I-0731], 10 to 100 nM; with `CCOC(=O)c1nn(Cc2cc(F)c(F)c(F)c2)c(Nc2cc(OC)c(OC)cc2C)nc1=O` [Compound I-1252], 10 to 100 nM. On the same count and under the same terms, in the case of `COc1ccc(Nc2nc(=O)c(C)cn2Cc2cc(F)c(F)c(F)c2)c(C)c1` [Compound I-1154] it was less than 10 nM; in that of `COc1ccc(C)c(Nc2nc(=O)c(F)cn2Cc2cc(F)cc(F)c2)c1` [Compound I-1069], 10 to 100 nM.

As for `Cn1ccc2c(Nc3nc(=O)c(F)cn3Cc3ccc(F)c(F)c3)cccc21` [Compound I-1020], the IC50 is less than 10 nM.

For `CCOc1ccc(Nc2nc(=O)c(F)cn2Cc2cc(F)c(F)c(F)c2)c(C)c1` [Compound I-1034], the IC50 is less than 10 nM. The same measure, in the same setting: with `COc1nc(C)c(Nc2nc(=O)c(F)cn2Cc2cc(F)cc(F)c2)cc1C` [Compound I-1003] the figure was less than 10 nM; with `COc1cn(Cc2ccc(F)c(Cl)c2)c(Nc2cc(-c3cccn(C)c3=O)c(F)cc2C)nc1=O` [Compound I-0591], 10 to 100 nM. Consider `COc1cc(C)c(Nc2nc(=O)c(OC)cn2Cc2cccc(F)c2)cc1Cl` [Compound I-0614], for which the IC50 was less than 10 nM. As for `COc1cn(Cc2ccc(F)c(F)c2)c(Nc2cccc3c(=O)[nH]ccc23)nc1=O` [Compound I-0689], the IC50 fell in the range of 10 to 100 nM. Same read-out and setting: with `Cc1cc2c(cc1Nc1nc(=O)c(F)cn1Cc1cc(F)cc(F)c1)COC2` [Compound I-1027] the figure was 10 to 100 nM.
